From publication PMC10165273, “Itch receptor MRGPRX4 interacts with the receptor activity–modifying proteins” (The Journal of Biological Chemistry, 2023)
Where “and” joins values, the source holds several entries; their conditions need not be identical. Identical values can stand only once. Like-named read-outs stand apart in the source and are kept apart here.

Columns and labels:
MRGPRX4 [1] = biological target: T1, MRGPRX4 (Homo sapiens, UniProt Q96LA9); experiment: BRET2 β-arrestin1 recruitment to MRGPRX4; assay type: cell-based; details: 100 μM agonist (Fig. 5A)
T1 construct: expressed in transfected cells; host or cells: HEK293T
T1 sequence (Q96LA9 whole entry): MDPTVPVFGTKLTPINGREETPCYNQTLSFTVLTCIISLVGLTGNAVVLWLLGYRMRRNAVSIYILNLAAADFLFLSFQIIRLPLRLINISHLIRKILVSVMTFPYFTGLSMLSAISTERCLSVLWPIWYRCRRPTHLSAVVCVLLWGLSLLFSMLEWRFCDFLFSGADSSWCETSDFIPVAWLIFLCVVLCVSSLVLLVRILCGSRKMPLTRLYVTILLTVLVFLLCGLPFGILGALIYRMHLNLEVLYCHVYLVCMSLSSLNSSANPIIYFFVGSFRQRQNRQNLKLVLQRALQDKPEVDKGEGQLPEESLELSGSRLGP
Experimental: (§1) The method for homogenous transfection of β-Arrestin and BRET^2 assay of β-Arrestin recruitment has been described previously ([51]). […] BRET^2 measurements were taken on the BioTek Synergy NEO2 microplate reader.
(§2) For MRGPRX4 DNA titration assays, HEK293T cells were cotransfected with either β-Arrestin1 or β-Arrestin2 with increasing amounts of MRGPRX4 (0.5, 1, or 2 pg/cell).
(§3) The BRET ratio for each sample was determined by calculating the ratio of the light intensity emitted by the GFP10 (515 nm) (acceptor) over the light intensity emitted by the RLuc3 (395 nm) (donor). Net BRET^2 was determined by subtracting the basal BRET^2 (β-arrestin-RLuc3 only) signal from the BRET^2 signals. All BRET values were normalized to the MRGPRX4-only condition.

MRGPRX4 + RAMP1 = biological target: T2, MRGPRX4 + RAMP1 (Homo sapiens, UniProt Q96LA9); experiment: IP1 accumulation, MRGPRX4 coexpressed with RAMP1; assay type: cell-based; design: key to IP1 Basal / response to agonist, X4:ramp1.I:1 / response to agonist, X4:ramp1.I:2 / response to agonist, X4:ramp1.I:0.25 / response to agonist, X4:ramp1.I:0.5: % IP1; unstimulated mock = 0%, fully stimulated MRGPRX4 = 100%; details: for activation at 100 µM / activation at 20 µM / activation at 0.8 µM / activation at […] / activation at 0.032 µM / activation at 4 µM: 2 h, Fig S3d, read-out: IP1 accumulation; for activation at 100 µM: log [DCA] (M) -4; for activation at 20 µM: log [DCA] (M) -4.69897; for activation at 0.8 µM: log [DCA] (M) -6.09691; for activation at […]: log [DCA] (M) -6.79588; for activation at 0.032 µM: log [DCA] (M) -7.49485; for activation at 4 µM: log [DCA] (M) -5.39794; for response to agonist, X4:ramp1.I:0.25 / response to agonist, X4:ramp1.I:0.5 / response to agonist, X4:ramp1.I:1 / response to agonist, X4:ramp1.I:2: Figure 4c-f, agonist 100µM, MRGPRX4 = 100; for response to agonist, X4:ramp1.I:0.25: X4:ramp1 1:0.25; for response to agonist, X4:ramp1.I:0.5: X4:ramp1 1:0.5; for response to agonist, X4:ramp1.I:1: X4:ramp1 1:1; for response to agonist, X4:ramp1.I:2: X4:ramp1 1:2
T2 construct: expressed in transfected cells; host or cells: HEK293T
T2 sequence (Q96LA9 whole entry): as above
Experimental: (§4) HEK293T cells were transfected with 1 pg/cell of MRGPRX4 DNA, and the amount of DNA was kept constant at 2 pg/cell with pcDNA3.1(+) empty vector, unless otherwise specified. Twenty four hours after transfection, IP1 assay was performed as previously described ([51]). When applicable, cells were treated with 1 μM YM254890 (YM) or different concentrations of U73122 for 1 h prior to addition of agonist or buffer. After incubation for 2 h, HTRF reagents and IP1 calibration standards were added and incubated for 2 h in the dark at room temperature. Time-resolved fluorescence signals were read on the BioTek Synergy NEO-TRF Hybrid multi-mode reader (BioTek Instruments). All data were carried out in three independent experiments with three technical replicate each.
For a homogenous transfection of MRGPRX4, a master mix of MRGPRX4 DNA was made prior to addition of the RAMP DNA. […]
(§5) Data reduction, standard calibration, and transformation of HTRF data were performed as previously described ([51]). Normalized IP1 values were calculated relative to the unstimulated mock-transfected cells (set to 0%) and fully stimulated MRGPRX4 (alone if applicable) (set to 100%).

MRGPRX4 [2] = biological target: T1, MRGPRX4; experiment: BRET2 β-arrestin2 recruitment to MRGPRX4; assay type: cell-based; details: 100 μM agonist (Fig. 5B, C)
From the text: as §1, §2
To measure the time-course of β-Arrestin2 recruitment to MRGPRX4 and CALCRL, the transfection and general procedure described above was followed, with the modification that Prolume Purple was added first, followed by addition of the appropriate agonists ([51]).
as §3

[3] = test system: mock-transfected HEK293T cells; experiment: IP1 accumulation, mock-transfected cells; assay type: cell-based, human; design: IP1 Basal / IP1 span / IP1 Emax / IP1 accumulation, dose-response (Figure 1a) / IP1 accumulation with YM (Figure 1c) / IP1 accumulation: unit not given here; details: for IP1 accumulation, dose-response (Figure 1a): pcDNA (mock), individual replicates; for IP1 accumulation: mock, Fig S3d-f
Experimental: as §4
Validation of CALCRL constructs was assayed by cotransfecting HEK293T cells with different tagged versions of CALCRL alone or with each RAMP and with the promiscuous Gqs5 Gq chimera protein, at a respective DNA ratio of 1:1:0.5. Gqs5 is an engineered Gq protein containing the last five amino acid residues of Gs, which allows Gs-coupled GPCRs to signal through Gq downstream signaling pathways ([55]). The homogenous transfection method described above was used for all DNA mixes. CALCRL:RAMP2:Gqs5-transfected cells served as positive control for RAMP functionality.
as §5

[4] = Mock, MRGPRX4 construct comparison (Fig. S4B,C-F)

C[C@H](CCC(=O)O)[C@H]1CC[C@H]2[C@@H]3CC[C@@H]4C[C@H](O)CC[C@]4(C)[C@H]3C[C@H](O)[C@]12C [DCA, deoxycholic acid]
β-arrestin1 recruitment to MRGPRX4 (MRGPRX4 [1]): did not recruit β-arrestin1
activation at 100 µM (MRGPRX4 + RAMP1; ratio MRGPRX4:RAMP1 1:0.25): 91.8%
activation at 20 µM (MRGPRX4 + RAMP1; ratio MRGPRX4:RAMP1 1:0.25): 80.7%
activation at 0.8 µM (MRGPRX4 + RAMP1; ratio MRGPRX4:RAMP1 1:0.25): 27.4%
activation at […] (MRGPRX4 + RAMP1; ratio MRGPRX4:RAMP1 1:0.25): 30.3%
activation at 0.032 µM (MRGPRX4 + RAMP1; ratio MRGPRX4:RAMP1 1:0.25): 28.5%
activation at 100 µM (MRGPRX4 + RAMP1; ratio MRGPRX4:RAMP1 1:0.5): 103%
activation at 20 µM (MRGPRX4 + RAMP1; ratio MRGPRX4:RAMP1 1:0.5): 62.7%
activation at 4 µM (MRGPRX4 + RAMP1; ratio MRGPRX4:RAMP1 1:0.5): 38.6%
activation at 0.8 µM (MRGPRX4 + RAMP1; ratio MRGPRX4:RAMP1 1:0.5): 26.5%
activation at […] (MRGPRX4 + RAMP1; ratio MRGPRX4:RAMP1 1:0.5): 22.5%
activation at 0.032 µM (MRGPRX4 + RAMP1; ratio MRGPRX4:RAMP1 1:0.5): 22.6%
activation at 20 µM (MRGPRX4 + RAMP1; ratio MRGPRX4:RAMP1 1:1): 61.5%
activation at 4 µM (MRGPRX4 + RAMP1; ratio MRGPRX4:RAMP1 1:1): 34.6%
activation at 0.8 µM (MRGPRX4 + RAMP1; ratio MRGPRX4:RAMP1 1:1): 30.1%
activation at […] (MRGPRX4 + RAMP1; ratio MRGPRX4:RAMP1 1:1): 22.8%
activation at 20 µM (MRGPRX4 + RAMP1; ratio MRGPRX4:RAMP1 1:2): 59.4%
activation at 4 µM (MRGPRX4 + RAMP1; ratio MRGPRX4:RAMP1 1:2): 29.7%
activation at 0.8 µM (MRGPRX4 + RAMP1; ratio MRGPRX4:RAMP1 1:2): 22%
activation at […] (MRGPRX4 + RAMP1; ratio MRGPRX4:RAMP1 1:2): 15.8%
Emax (MRGPRX4 + RAMP1; Figure 4a bottom, DNA ratio MRGPRX4:RAMP1 1:0.5, MRGPRX4 alone = 100, read-out: efficacy): 109%
response to agonist, X4:ramp1.I:0.25 (MRGPRX4 + RAMP1): 100.247 and 94.5976
response to agonist, X4:ramp1.I:0.5 (MRGPRX4 + RAMP1): 101.591 and 94.608
response to agonist, X4:ramp1.I:1 (MRGPRX4 + RAMP1): 97.7538 and 86.0836
response to agonist, X4:ramp1.I:2 (MRGPRX4 + RAMP1): 90.6013 and 100.616
IP1 Basal (MRGPRX4 + RAMP1; MRGPRX4 + RAMP1 0.25 pg (Fig. S3), normalized per agonist): 25.16
Emax (MRGPRX4 + RAMP1; MRGPRX4 + RAMP1 0.25 pg (Fig. S3), normalized per agonist, read-out: IP1 Emax): 113%
Emax (MRGPRX4 + RAMP1; MRGPRX4 + RAMP1 0.25 pg (Fig. S3), normalized per agonist, read-out: IP1 span): 87.7%
IP1 Basal (MRGPRX4 + RAMP1; MRGPRX4 + RAMP1 0.5 pg (Fig. S3), normalized per agonist): 24.94
Emax (MRGPRX4 + RAMP1; MRGPRX4 + RAMP1 0.5 pg (Fig. S3), normalized per agonist, read-out: IP1 Emax): 117%
Emax (MRGPRX4 + RAMP1; MRGPRX4 + RAMP1 0.5 pg (Fig. S3), normalized per agonist, read-out: IP1 span): 92%
IP1 Basal (MRGPRX4 + RAMP1; MRGPRX4 + RAMP1 1 pg (Fig. S3), normalized per agonist): 22.25
Emax (MRGPRX4 + RAMP1; MRGPRX4 + RAMP1 1 pg (Fig. S3), normalized per agonist, read-out: IP1 Emax): 118%
Emax (MRGPRX4 + RAMP1; MRGPRX4 + RAMP1 1 pg (Fig. S3), normalized per agonist, read-out: IP1 span): 95.8%
IP1 Basal (MRGPRX4 + RAMP1; MRGPRX4 + RAMP1 2 pg (Fig. S3), normalized per agonist): 17.30
Emax (MRGPRX4 + RAMP1; MRGPRX4 + RAMP1 2 pg (Fig. S3), normalized per agonist, read-out: IP1 Emax): 112%
Emax (MRGPRX4 + RAMP1; MRGPRX4 + RAMP1 2 pg (Fig. S3), normalized per agonist, read-out: IP1 span): 94.5%
β-arrestin2 recruitment to MRGPRX4 (MRGPRX4 [2]): did not observe any β-arrestin2 recruitment
Emax ([3]; Homo sapiens, HEK-293T, Mock, MRGPRX4 construct comparison (Fig. S4B,C-F)): 0.236%
IP1 Basal [3, 4]: 2.330
IP1 span [3, 4]: -2.094
IP1 accumulation, dose-response (Figure 1a) ([3]; log [agonist] (M) -4): 0.2103 and 0.3669 and 0.293 and -0.07837 and 0.1649 and -0.08879 and 0.2113 and -0.2385 and -0.6593 and -0.4375 and -0.5166 and -0.9554
IP1 accumulation, dose-response (Figure 1a) ([3]; log [agonist] (M) -4.95424): 0.553 and 0.2642 and 0.3806 and 0.3517 and 0.05455 and 0.247 and 0.3525 and -0.3352 and -0.4263 and -0.5038 and 0.5136 and -0.7508
IP1 accumulation, dose-response (Figure 1a) ([3]; log [agonist] (M) -5.90849): 0.1227 and 0.5487 and 0.6873 and 0.2386 and 0.02519 and 0.3705 and 0.5521 and -0.1483 and -0.4243 and -0.2808 and 0.06832 and -0.3071
IP1 accumulation, dose-response (Figure 1a) ([3]; log [agonist] (M) -6.86273): 0.3536 and 0.9227 and 0.8938 and 0.5392 and 0.2564 and 0.9514 and 0.9872 and 0.3929 and 0.5666 and 0.2655 and 0.4716 and 0.3728
IP1 accumulation ([3]; log [DCA] (M) -4): 1.182 and 0.9551 and 1.627
IP1 accumulation ([3]; log [DCA] (M) -5.39794): 0.3631 and 0.268 and 0.3023

C[C@H](CCC(=O)NCCS(=O)(=O)O)[C@H]1CC[C@H]2[C@@H]3CC[C@@H]4C[C@H](O)CC[C@]4(C)[C@H]3C[C@H](O)[C@]12C [TDCA, Taurodeoxycholic acid]
response to agonist, X4:ramp1.I:0.25 (MRGPRX4 + RAMP1): 91.5401 and 91.7191
response to agonist, X4:ramp1.I:0.5 (MRGPRX4 + RAMP1): 85.1903 and 91.5141
response to agonist, X4:ramp1.I:1 (MRGPRX4 + RAMP1): 95.31 and 91.9832
response to agonist, X4:ramp1.I:2 (MRGPRX4 + RAMP1): 89.0717 and 99.7164
IP1 accumulation, dose-response (Figure 1a) ([3]; log [agonist] (M) -4): 0.277 and 0.4314 and 0.7552 and 0.05214 and 0.8196 and 0.004346 and 0.07799 and 0.2082 and -0.7055 and 0.02887 and 0.02154 and -0.2702
IP1 accumulation, dose-response (Figure 1a) ([3]; log [agonist] (M) -4.95424): 0.666 and 0.2913 and 0.6803 and 0.05284 and 0.1544 and 0.254 and 0.03541 and -0.4236 and -0.5986 and 0.1648 and -0.7514 and -0.1187
IP1 accumulation, dose-response (Figure 1a) ([3]; log [agonist] (M) -5.90849): 0.6055 and 0.3564 and 0.9177 and 0.421 and 0.4207 and 0.09062 and 0.2243 and -0.1271 and -0.5946 and 0.5044 and 0.1318 and -0.2093
IP1 accumulation, dose-response (Figure 1a) ([3]; log [agonist] (M) -6.86273): 0.7575 and 0.6878 and 1.269 and 0.5282 and 0.9623 and 0.4904 and 0.6445 and 0.2971 and -0.08157 and 1.2983 and 1.581 and 1.374
